Reference: publication PMC12054466 (RSC Advances, 2025)
Like-named read-outs stand apart in the source and are kept apart here.

Experiments:
[1] = format: binding
[2] = rabbits, single oral dose 10 mg kg^−1, n = 5, mean; unit as in Table 4

## CC(C)(C(=O)O)c1ccc(C(O)CCCN2CCC(C(O)(c3ccccc3)c3ccccc3)CC2)cc1 (stereo not shown) [fexofenadine, Fexofenadine]
[1]; 298 K (25 °C)
  Ksv (Stern–Volmer quenching constant): 1.36 10^6 M^−1
[1]; 303 K
  Ksv (Stern–Volmer quenching constant): 1.09 10^6 M^−1
[1]; 308 K (35 °C)
  Ksv (Stern–Volmer quenching constant): 0.95 10^6 M^−1
[2]
  λz: 0.06 h
